# In ChEMBL document CHEMBL5046279, “Discovery of a Partial Glucokinase Activator Clinical Candidate: Diethyl ((3-(3-((5-(Azetidine-1-carbonyl)pyrazin-2-yl)oxy)-5-isopropoxybenzamido)-1H-pyrazol-1-yl)methyl)phosphonate (BMS-820132)” (J Med Chem, 2022):
# What was measured:
# [1] = Microsomal stability in human liver microsomes assessed as parent compound remaining at 0.5 uM measured after 10 mins in presence of NADPH; type: ADME, Microsome; details: read-out: Stability
# [2] = Aqueous solubility of the compound at pH 6.5 using amorphous form of sample; type: physicochemical; details: aqueous solution
# [3] = biological target: Voltage-gated inwardly rectifying potassium channel KCNH2 (Homo sapiens, UniProt Q12809); assay: Inhibition of hERG by patch clamp method; type: toxicity
# [4] = Permeability of compound at pH 7.4 by PAMPA assay; type: ADME; details: read-out: permeability
# Hexokinase-4 = biological target: T1, Hexokinase-4 (Homo sapiens, UniProt P35557); assay: Activation of recombinant full length human liver glucokinase expressed in Escherichia coli incubated for 10 mins by plate reader analysis
# T1 sequence (P35557 whole entry): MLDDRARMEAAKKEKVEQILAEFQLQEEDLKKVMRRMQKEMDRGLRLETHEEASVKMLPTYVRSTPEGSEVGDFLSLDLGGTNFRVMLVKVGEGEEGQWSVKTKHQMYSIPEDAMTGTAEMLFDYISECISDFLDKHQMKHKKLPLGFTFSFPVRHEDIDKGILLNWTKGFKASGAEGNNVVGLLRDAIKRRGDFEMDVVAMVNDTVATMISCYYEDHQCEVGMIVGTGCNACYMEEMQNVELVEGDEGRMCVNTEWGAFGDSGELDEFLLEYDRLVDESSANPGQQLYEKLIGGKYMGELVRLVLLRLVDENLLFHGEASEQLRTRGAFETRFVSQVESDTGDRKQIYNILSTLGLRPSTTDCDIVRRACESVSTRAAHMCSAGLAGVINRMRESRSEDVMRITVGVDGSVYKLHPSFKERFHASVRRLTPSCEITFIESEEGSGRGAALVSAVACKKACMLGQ
# Sequence of Voltage-gated inwardly rectifying potassium channel KCNH2 (Q12809 whole entry): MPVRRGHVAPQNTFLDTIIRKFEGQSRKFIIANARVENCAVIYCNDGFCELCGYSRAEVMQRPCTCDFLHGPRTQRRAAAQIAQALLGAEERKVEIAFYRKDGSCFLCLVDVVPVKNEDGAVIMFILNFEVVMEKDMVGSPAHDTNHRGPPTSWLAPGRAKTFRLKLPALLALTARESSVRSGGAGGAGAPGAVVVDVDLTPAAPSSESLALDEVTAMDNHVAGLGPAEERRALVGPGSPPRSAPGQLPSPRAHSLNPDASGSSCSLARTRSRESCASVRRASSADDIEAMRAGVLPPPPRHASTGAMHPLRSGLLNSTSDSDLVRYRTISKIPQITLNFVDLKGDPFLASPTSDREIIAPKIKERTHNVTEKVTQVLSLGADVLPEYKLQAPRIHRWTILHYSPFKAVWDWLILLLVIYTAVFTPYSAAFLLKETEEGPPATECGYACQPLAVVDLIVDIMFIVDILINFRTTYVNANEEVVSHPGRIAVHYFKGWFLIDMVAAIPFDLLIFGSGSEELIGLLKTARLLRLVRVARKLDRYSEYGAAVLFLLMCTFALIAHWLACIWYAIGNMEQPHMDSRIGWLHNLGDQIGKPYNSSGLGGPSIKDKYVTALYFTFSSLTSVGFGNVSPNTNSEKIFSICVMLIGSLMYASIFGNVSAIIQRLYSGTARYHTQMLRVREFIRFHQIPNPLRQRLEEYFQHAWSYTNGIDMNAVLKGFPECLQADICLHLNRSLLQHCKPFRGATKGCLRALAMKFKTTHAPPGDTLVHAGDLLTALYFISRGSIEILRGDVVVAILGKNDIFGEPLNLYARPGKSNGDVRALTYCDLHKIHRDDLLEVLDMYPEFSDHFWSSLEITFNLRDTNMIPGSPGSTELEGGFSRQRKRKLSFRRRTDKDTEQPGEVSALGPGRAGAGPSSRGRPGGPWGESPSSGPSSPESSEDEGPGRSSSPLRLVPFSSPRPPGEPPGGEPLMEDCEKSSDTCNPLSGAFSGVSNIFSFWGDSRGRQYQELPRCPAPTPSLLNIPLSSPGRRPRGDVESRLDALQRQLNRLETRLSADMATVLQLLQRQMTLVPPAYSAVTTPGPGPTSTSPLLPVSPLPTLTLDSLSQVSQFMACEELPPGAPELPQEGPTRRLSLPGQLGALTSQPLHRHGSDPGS
Compound,"remaining at 10 min, 0.5 µM [1]",solubility [2],IC50 [3],Papp [4],EC50 (Hexokinase-4)
CCOP(=O)(Cn1ccc(NC(=O)c2cc(Oc3ccc(S(C)(=O)=O)cc3)cc(OC(C)C)c2)n1)OCC,88%,1 µg/mL,> 80000 nM,50.1 ×10⁻⁶ cm/s,48 nM
CCOP(=O)(Cn1ccc(NC(=O)c2cc(Oc3cnc(C(N)=O)cn3)cc(OC(C)C)c2)n1)OCC,100%,–,> 80000 nM,–,656 nM
CCOP(=O)(Cn1ccc(NC(=O)c2cc(Oc3cnc(S(C)(=O)=O)cn3)cc(OC(C)C)c2)n1)OCC,91%,–,> 80000 nM,44.5 ×10⁻⁶ cm/s,159 nM
CCOP(=O)(Cc1cnc(NC(=O)c2cc(Oc3ccc(S(C)(=O)=O)cc3)cc(O[C@@H](C)COC)c2)cn1)OCC,54%,161 µg/mL,> 80000 nM,–,164 nM
CCOP(=O)(Cn1ccc(NC(=O)c2cc(Oc3ccc(C(=O)N4CCC4)cn3)cc(OC(C)C)c2)n1)OCC,99%,298 µg/mL,> 80000 nM,–,188 nM
CCOP(=O)(Cn1ccc(NC(=O)c2cc(Oc3cnc(S(C)(=O)=O)nc3)cc(OC(C)C)c2)n1)OCC,100%,471 µg/mL,> 80000 nM,31.4 ×10⁻⁶ cm/s,234 nM
CCOP(=O)(Cn1ccc(NC(=O)c2cc(Oc3cnc(C(=O)N(C)C)cn3)cc(OC(C)C)c2)n1)OCC,99%,980 µg/mL,> 80000 nM,–,148 nM
CCOP(=O)(Cn1ccc(NC(=O)c2cc(Oc3ccc(S(C)(=O)=O)cc3)cc(OC(CF)CF)c2)n1)OCC,93%,10 µg/mL,44000 nM,38.2 ×10⁻⁶ cm/s,76 nM
CCOP(=O)(Cn1ccc(NC(=O)c2cc(Oc3ccc(S(=O)(=O)CC)cc3)cc(OC(C)C)c2)n1)OCC,94%,–,–,53.4 ×10⁻⁶ cm/s,28 nM
CCOP(=O)(Cn1ccc(NC(=O)c2cc(Oc3ccc(S(C)(=O)=O)cc3)cc(O[C@@H](CC)CO)c2)n1)OCC,82%,–,> 80000 nM,8.4 ×10⁻⁶ cm/s,98 nM
CCOP(=O)(Cn1ccc(NC(=O)c2cc(Oc3cnc(C(=O)NC)cn3)cc(OC(C)C)c2)n1)OCC,98%,–,> 80000 nM,–,193 nM
CCOP(=O)(Cn1ccc(NC(=O)c2cc(Oc3ccc(S(C)(=O)=O)cc3)cc(O[C@@H](C)CO)c2)n1)OCC,90%,7 µg/mL,> 80000 nM,0.7 ×10⁻⁶ cm/s,79 nM
CCOP(=O)(Cn1ccc(NC(=O)c2cc(Oc3ccc(S(C)(=O)=O)nn3)cc(OC(C)C)c2)n1)OCC,100%,3830 µg/mL,> 80000 nM,25.5 ×10⁻⁶ cm/s,530 nM
